System: SH-SY5Y cells
Assay: Total ROS production (H2DCFDA) in SH-SY5Y cells under R/O
Assay type: cell-based
Conditions: 0.1, 1 and 10 µM; R/O 6 h
Method: ROS production was evaluated using the fluorescent dye H2DCFDA [20]. Briefly, after deacetylation inside the cell, the H2DCF derivative is able to react with oxygen-free radicals and is transformed into dichlorofluorescein, increasing its fluorescence intensity. SH-SH5Y cells were seeded in 96-well clear-bottom black plates 6 × 10^4 cells/well. After 24 h, cells were treated with compound 3i at the desired concentrations for 24 h. Treatments were then eliminated and the cells were loaded with H2DCFDA (10 μM) for 45 min. […] Fluorescence was evaluated in a fluorescence microplate reader (Fluostar optima; BMG Labtech, Ortenberg, Baden-Württemberg, Germany) at 485/520 excitation/emission wavelengths, respectively. […]
To further evaluate its mechanism of action, and considering the importance of exacerbated oxidative stress in neurodegenerative diseases, we evaluated its capacity to reduce free radical species production using the above-mentioned R/O toxic combination to generate ROS and measure the influence of 3i in the total ROS production by using the H2DCFDA dye, and also the specific superoxide production by using the selective dye dihydroetidium (DHE). […]

**Q.** With `COC(=O)C1=C(C)N(CCc2ccccc2)C(=O)/C1=C\c1ccc(O)c(O)c1` [Compound 3i, Methyl (Z)-4-(3,4-Dihydroxybenzylidene)-2-methyl-5-oxo-1-phenethyl-4,5-dihydro-1H-pyrrole-3-carboxylate] as the compound, how does the “total ROS production (H2DCFDA)” value read?
**A.** reduce ROS production almost to basal levels at all concentrations tested

From article PMC8230565, “Bisavenathramide Analogues as Nrf2 Inductors and Neuroprotectors in In Vitro Models of Oxidative Stress and Hyperphosphorylation” (Antioxidants, 2021)
